Publication PMC2838726 (Molecular cancer therapeutics, 2010)

What was measured:
Safety, adverse events = format: in vivo, human; conditions: of 11 patients
incurable solid tumor = experiment: Tumor response; format: in vivo, human; conditions: per patient
[1] = Sorafenib plasma pharmacokinetics in patients, with and without erlotinib; format: in vivo, human; conditions: for Cmax / Tmax / AUC: human, plasma, oral
[2] = test system: RAF signal transduction capacity (MEK1/2 phosphorylation) in monocytes; experiment: MEK1/2 pShift assay; format: cell-based, human; conditions: patient 5, one sample, after 7 days of sorafenib (25.9% before sorafenib)
[3] = erlotinib 150 mg daily with sorafenib; cycle 1 days +15, 16, 22, 29
[4] = phase I trial of sorafenib plus gefitinib; cited from earlier work

Structure (SMILES)	patients needing at least 1 dose delay (Safety, adverse events)	patients with doses delivered in full throughout the study (Safety, adverse events)	patients with doses reduced (Safety, adverse events)	TTP (incurable solid tumor)	differences in PK variables of sorafenib in the presence or absence of erlotinib ([1]; day −2 vs day +15, Wilcoxon signed rank test)	Cmax [1]	Tmax [1]	AUC ([1]; 150 mg)	AUC ([1]; 400 mg)	Cmax ([1]; 400 mg bid)	Tmax ([1]; 400 mg bid)	additional monocytes shifted to the upper gate with IL3 versus vehicle (pShift) [2]	patients with drug discontinued (Safety, adverse events)	mean trough erlotinib concentration (Css,min) [3]	change of gefitinib Cmax and AUC in the presence of sorafenib [4]
CNC(=O)c1cc(Oc2ccc(NC(=O)Nc3ccc(Cl)c(C(F)(F)F)c3)cc2)ccn1 [sorafenib]	Nine	4 patients	7 patients	15 days	No statistically significant differences	8600 ng/mL	4 h	53200 ng·h/mL	70900 ng·h/mL	8600 ng/mL	4.2 h	0.7%			
C#Cc1cccc(Nc2ncnc3cc(OCCOC)c(OCCOC)cc23)c1 [erlotinib]	7 patients	6 patients	2 patients										3 patients	around 500 ng/ml	
COc1cc2ncnc(Nc3ccc(F)c(Cl)c3)c2cc1OCCCN1CCOCC1 [gefitinib]															decrease
